This is an account of results in patent US10729668B2, “Ketobutyrate compounds and compositions for treating age-related symptoms and diseases” (The Regents of the University of California, priority 2014, dated 2020).

In experiment [1] the test system is C2C12 Cells. In words: Oxygen consumption rate (OCR) in C2C12 cells, Seahorse XF-24. The settings on record: 1 hour treatment. The format is cell-based, mouse. On the procedure: Measurement of oxygen consumption rates (OCR). OCR measurements were made using a Seahorse XF-24 analyzer (Seahorse Bioscience). C2C12 Cells were seeded in Seahorse XF-24 cell culture microplates at 30,000 cells per well in DMEM media supplemented with 10% FBS and 10 mM glucose, and incubated at 37° C. and 5% CO2 overnight. Treatment with α-KB or DMSO (vehicle control) was for 1 hour. Cells were washed in unbuffered DMEM medium (pH 7.4, 10 mM glucose) just before measurements, and maintained in this buffer with indicated concentrations of α-KB. OCR was measured three times under basal conditions and normalized to protein concentration per well.

The target of experiment [2] is T1, Complex II (Mus musculus, UniProt Q8K2B3+Q9CQA3+Q9CXV1+Q9CZB0).
T1 construct: Mitochondria were isolated from mouse liver as described earlier; from tissue; host or cells: liver mitochondria of 3-month-old C57BL/6 mice
T1 sequence (Q8K2B3 43-664): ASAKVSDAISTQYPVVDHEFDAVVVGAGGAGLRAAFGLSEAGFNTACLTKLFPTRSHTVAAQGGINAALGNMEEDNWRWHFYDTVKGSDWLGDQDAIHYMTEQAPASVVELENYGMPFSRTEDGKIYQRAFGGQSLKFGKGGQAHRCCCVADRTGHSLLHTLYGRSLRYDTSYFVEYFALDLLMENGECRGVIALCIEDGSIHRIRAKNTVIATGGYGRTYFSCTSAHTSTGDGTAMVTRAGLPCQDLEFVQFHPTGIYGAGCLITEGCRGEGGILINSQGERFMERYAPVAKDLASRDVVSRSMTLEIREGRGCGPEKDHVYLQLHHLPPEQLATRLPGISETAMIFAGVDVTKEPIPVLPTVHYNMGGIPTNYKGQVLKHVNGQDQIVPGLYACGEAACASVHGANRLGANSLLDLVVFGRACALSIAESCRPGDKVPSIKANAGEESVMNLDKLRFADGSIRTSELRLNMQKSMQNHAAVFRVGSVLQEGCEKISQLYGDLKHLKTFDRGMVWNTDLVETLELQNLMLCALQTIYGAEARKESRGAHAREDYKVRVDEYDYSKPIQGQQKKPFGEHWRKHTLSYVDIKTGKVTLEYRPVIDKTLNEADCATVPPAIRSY
T1 sequence (Q9CQA3 31-282): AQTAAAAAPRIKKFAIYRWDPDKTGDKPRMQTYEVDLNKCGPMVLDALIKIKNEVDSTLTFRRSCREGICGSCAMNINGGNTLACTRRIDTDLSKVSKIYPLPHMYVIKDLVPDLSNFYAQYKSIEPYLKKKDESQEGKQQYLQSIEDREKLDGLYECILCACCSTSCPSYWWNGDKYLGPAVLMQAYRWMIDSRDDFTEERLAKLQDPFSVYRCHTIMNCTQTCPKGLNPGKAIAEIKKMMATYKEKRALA
T1 sequence (Q9CZB0 30-169): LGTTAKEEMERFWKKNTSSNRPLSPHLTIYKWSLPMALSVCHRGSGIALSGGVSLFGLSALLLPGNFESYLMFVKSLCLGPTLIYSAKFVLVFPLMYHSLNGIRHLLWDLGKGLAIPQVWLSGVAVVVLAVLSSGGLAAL
T1 sequence (Q9CXV1 57-159): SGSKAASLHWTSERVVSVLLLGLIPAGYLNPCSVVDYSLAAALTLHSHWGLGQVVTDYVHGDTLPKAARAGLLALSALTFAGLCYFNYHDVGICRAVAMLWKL
Description: Complex II driven coupling assay, isolated liver mitochondria (succinate and rotenone). The format is biochemical. As to conditions: succinate supplemented. On the procedure:
Animal studies were performed under approved UCLA animal research protocols. Mitochondria from 3-month-old C57BL/6 mice were isolated. Briefly, livers were extracted, minced at 4° C. in MSHE+BSA (70 mM sucrose, 210 mM mannitol, 5 mM HEPES, 1 mM EGTA, and 0.5% fatty acid free BSA, pH 7.2), and rinsed several times to remove blood. All subsequent steps were performed on ice or at 4° C. The tissue was disrupted in 10 volumes of MSHE+BSA with a glass Dounce homogenizer (5-6 strokes) and the homogenate was centrifuged at 800×g for 10 minutes to remove tissue debris and nuclei. The supernatant was decanted through a cell strainer and centrifuged at 8,000×g for 10 minutes. The dark mitochondrial pellet was resuspended in MSHE+BSA and re-centrifuged at 8,000×g for 10 minutes. The final mitochondrial pellet was resuspended in 30 μl of MAS buffer (70 mM sucrose, 220 mM mannitol, 10 mM KH2PO4, 5 mM MgCl2, 2 mM HEPES, 1 mM EGTA, and 0.2% fatty acid free BSA, pH 7.2). Isolated mitochondrial respiration was measured by running coupling and electron flow assays as described. […]
Mitochondrial respiration was measured by running coupling and electron flow assays. […]

The subject of experiment [3] is NADH dehydrogenase. Description: Electron flow assay, isolated liver mitochondria. The format is biochemical, mouse. On the procedure: Animal studies were performed under approved UCLA animal research protocols. Mitochondria from 3-month-old C57BL/6 mice were isolated. Briefly, livers were extracted, minced at 4° C. in MSHE+BSA (70 mM sucrose, 210 mM mannitol, 5 mM HEPES, 1 mM EGTA, and 0.5% fatty acid free BSA, pH 7.2), and rinsed several times to remove blood. All subsequent steps were performed on ice or at 4° C. The tissue was disrupted in 10 volumes of MSHE+BSA with a glass Dounce homogenizer (5-6 strokes) and the homogenate was centrifuged at 800×g for 10 minutes to remove tissue debris and nuclei. The supernatant was decanted through a cell strainer and centrifuged at 8,000×g for 10 minutes. […] Isolated mitochondrial respiration was measured by running coupling and electron flow assays as described. […] After basal readings, the sequential injections were as follows: 2 μM rotenone (Complex I inhibitor), 10 mM succinate (Complex II substrate), 4 μM antimycin A (Complex III inhibitor), and 10 mM/100 μM ascorbate/tetramethylphenylenediamine (Complex IV substrate). […]

As to `C[C@@H](O)CC(=O)O` [3-HB, (R)-3-hydroxybutyrate, reference compound], in experiment [1], the basal respiration result is recorded as “does not have any effect” and the “maximal respiration (mitochondrial respiration upon FCCP treatment)” value is “does not have any effect”. Further, the “mitochondrial respiration, Complex II-driven coupling” value in experiment [2] is reported as “does not affect”. In experiment [3], the “respiration in electron flow assay” value is reported as “does not affect”.
